According to patent publication US10723766B2, “Derivatives of gamma-amanitin” (Heidelberg Pharma Research GmbH, priority 2015, dated 2020):

What was measured:
[1] = tested on: SKOV3 cells; assay: viability of SKOV3 cells treated with amatoxins (FIG. 3); format: cell-based
[2] = molecular target: RNA-polymerase II (Homo sapiens, UniProt P24928); settings: not covalently bound, very tight complex; read-out: KD of complex between amanitin and RNA-polymerase II; cited from earlier work
[3] = Zanotti et al., 1989; cited from earlier work

Compound: CC[C@H](C)[C@@H]1NC(=O)CNC(=O)C2Cc3c([nH]c4cc(O)ccc34)[S@+]([O-])CC(NC(=O)CNC1=O)C(=O)N[C@@H](CC(N)=O)C(=O)N1CC(O)C[C@H]1C(=O)N[C@@H]([C@@H](C)[C@H](C)O)C(=O)N2 (stereo partly drawn) [γ-amanitin (4), γ-amanitin]
- EC50 [1]: 270 nM

Compound: amanitin
- Kd [2]: 3 nM

Compound: S-deoxo-γ(R)-hydroxy-isoleucin-amaninamide
- biological activity [3]: biologically inactive
